The record followed here is US20260212981A1, “Methods of drug dosing based on early pharmacokinetics” (NUTROMICS […] LTD, priority 2022, published 2026).

The structures appear in SMILES notation. Like-named read-outs stand apart in the source and are kept apart here.

Holding throughout (type): in vivo
A short description of series [1]: Vancomycin concentration in blood/serum of human participants (blood draws). Conditions: blood, iv, 1 gram, single 1 gram IV infusion over 1 hour 40 minutes. On the procedure: These human studies were performed at Monash Health, Monash Medical Centre, Clayton, Victoria 3168, Australia, under protocol reference number 2021/ETH80521 and protocol trial identified and registry 80521. Institutional Ethics Committee approval was obtained before commencement of the study.
(§1) 30 minutes (+15 minutes) post-application of the device, the participant received a single dose of vancomycin as an intravenous infusion (1 gram over 1 hour 40 minutes). The time of administration and completion of infusion was recorded.
Blood samples for the measurement of vancomycin concentrations were collected prior to the administration of vancomycin infusion, 30 minutes (±5 minutes) and 1 hour (±10 minutes) during the infusion, at the end of the infusion (±15 minutes) and then at 40 minutes (±15 minutes), 1.5 hours (±15 minutes), 2 hours (±15 minutes), 3 hours (±15 minutes), 4 hours (±15 minutes), 6 hours (±15 minutes), 8 hours (±15 minutes) and 10 hours (±15 minutes) after the infusion has been completed.
These human studies characterised perfusion dynamics. The study was performed in relation to a 1000 mg vancomycin dose administered via venous infusion.
ISF dynamics are captured in real-time high resolution (every 5 minutes) detection of vancomycin concentration. […] In comparison to blood (Cmax, ~30 mg/L) very little vancomycin was monitored in the ISF compartment (Cmax~6 mg/L) which is interpreted as a low level of perfusion

Series [2] in a line: Vancomycin concentration in dermal interstitial fluid (ISF) of human participants by wearable EAB sensor. The settings on record: 1 gram; for Kp: dermal interstitial fluid (ISF) relative to blood, intravenous, read-out: Proportion of vancomycin monitored in ISF compartment in comparison to blood; for Cmax: dermal interstitial fluid (ISF), iv, read-out: Cmax in ISF compartment.
Text: These human studies followed vancomycin levels using an EAB sensor (which may also be referred to as the “device”). The device was a self-contained wearable EAB sensor, constructed, having an on-board power supply, electrodes, and electronics, including a microprocessor and BlueTooth™ communications module.
The EAB sensor comprised four electrodes: two aptamer-coated working electrodes, a counter electrode, and a reference electrode. All electrodes were in the form of a microneedle configured to pierce the skin and contact the participant's ISF when fully inserted into the dermal tissues.
Each working electrode was coated with a vancomycin-sensitive single-stranded DNA-aptamer having a length of 28 nucleobases, obtained from Dr. Milan STOJANOVIC, New York campus research laboratory of The Trustees of Columbia University in the City of New York of 80 Claremont Avenue, 4th Floor, New York, NY 10027, United States.
A vancomycin-sensitive EAB sensor was placed onto the participant's upper arm (see FIG. 20), opposite the arm where vancomycin was being infused. The time of device application was recorded. The device was applied 30 minutes (+15 minutes) prior to administering the vancomycin infusion and the device was removed up to 10 hours post-cessation of the infusion.
as §1
Once applied to the participant, the DNA-based sensor electrodes were interrogated, and output treated as follows.
Square Wave Voltammetry (SWV) was used to interrogate the DNA-based sensor electrodes. Multiple steps were performed to convert the raw voltammograms obtained from the DNA-based sensor electrodes into a vancomycin concentration. The steps detailed below convert the raw SWV voltammograms into a signal that is indicative of the analyte concentration. • 1. Smooth the raw SWV voltammogram current versus voltage data to aid identification of the current peak and its magnitude. • 2. Apply a peak finding algorithm to the smoothed voltammogram to identify the position of the peak and to subtract a baseline current to determine a peak current magnitude. • 3. Use the determined peak currents magnitudes obtained at two different SWV interrogation frequencies (in this case 50 Hz and 300 Hz), when no vancomycin is present and when it is present to calculate an analyte concentration responsive signal (S). • 4. Smooth the S values over time, prior to applying a calibration function.
Steps 1 to 3 were used to analyse the calibration data as detailed below at (a) and (b), and steps 1 to 4 above in relation to the clinical data. • (a) Calibration data was produced from in vitro testing, where vancomycin is spiked into bovine plasma and tested using electrodes from the same production batch as those used in the clinical experiments (but not the electrode actually used in the clinical experiments). The purpose of this testing was to produce S versus known vancomycin concentration data that can be used to produce a calibration function to convert the S values into the corresponding measured vancomycin concentration values ([V]). • (b) Clinical experiment data, where the calibration function determined in (a) is applied to the S values produced by the in vivo electrodes in the clinical experiment, to convert them to measured vancomycin concentrations. […]

A short description of series [3]: Skin surface temperature / adverse event monitoring of human participants during vancomycin infusion. The settings on record: for Physiologic response (skin surface temperature): temperature every 5 minutes. The source says:
Reference is made to FIG. 21A and FIG. 21B each showing a computer-rendered representation of the device (10) used in these studies, indicating one of the microneedles (30), the power supply, being a battery (105), a printed circuit board (110) having various electronic components such as the communications module and microprocessor mounted thereon, and a thermistor (115) functioning to contact the skin surface of the participant and provide an estimation of the temperature of the underlying ISF.
Participants were monitored throughout the study duration for any adverse events. Given the duration of the study visit, participants were required to stay overnight. In the absence of any adverse events, participants were discharged the following morning after being observed for at least 15 minutes post removal of the device.
The EAB sensor used in these studies penetrated 1-2 mm into the dermal interstitial compartment with micron diameter electrodes coated with a specific DNA sequence for vancomycin detection. Additionally, the EAB sensor continuously monitored (every 5 minutes) surface temperature where the normal temperature range for a human is characterised between 31-35.5° C.

Where [4] appears, read: participant 014 (hyper-perfusion phenotype).

In the case of `CN[C@H](CC(C)C)C(=O)N[C@H]1C(=O)N[C@@H](CC(N)=O)C(=O)N[C@H]2C(=O)N[C@H]3C(=O)N[C@H](C(=O)N[C@H](C(=O)O)c4cc(O)cc(O)c4-c4cc3ccc4O)[C@H](O)c3ccc(c(Cl)c3)Oc3cc2cc(c3O[C@@H]2O[C@H](CO)[C@@H](O)[C@H](O)[C@H]2O[C@H]2C[C@](C)(N)[C@H](O)[C@H](C)O2)Oc2ccc(cc2Cl)[C@H]1O` [vancomycin], the Cmax (in general, the highest concentration seen after dosing) in series [1] (participant 012 (hypo-perfusion phenotype), 12 blood draws over 12 hours) is ~30000 ng/mL; in series [1] (setting [4]), ~35000 ng/mL; in series [1] (participant 015 (moderate-perfusion phenotype), 12 blood draws over 12 hours), ~30000 ng/mL; in series [2] (participant 012 (hypo-perfusion phenotype), EAB sensor 812, single 1 gram IV infusion, read every 5 minutes) it was ~6000 ng/mL; in series [2] (participant 014 (hyper-perfusion phenotype), EAB sensor 810, single 1 gram IV infusion) it was ~10000 ng/mL; in series [2] (participant 015 (moderate-perfusion phenotype), EAB sensor 818, single 1 gram IV infusion, read every 5 minutes) it was ~10000 ng/mL. For the same molecule, the Kp in series [2] (setting [4]) was ~0.86; in series [2] (participant 015 (moderate-perfusion phenotype)), ~0.3. Further, the “Physiologic response (skin surface temperature)” value in series [3] (participant 012, no elevations above 36° C.) is “no physiologic response”; in series [3] (participant 015), “no elevations depicting a physiological response”. Also, the “Adverse reaction to vancomycin” value in series [3] (participant 014, temperature elevations above 36° C. recorded, antihistamine treatment required) is “sensitivity response to vancomycin which resulted in hives and itching”.
